According to patent publication US20240108734A1, “METHODS FOR TREATING AND AMELIORATING CANCER” (The Regents of the University of California, priority 2021, published 2024):
“Also recorded” adds a separate entry of the source.

Legend:
[1] = tested on: ADAR1-mediated RNA editing; assay: RNA-seq quantification of ADAR1-mediated A-to-I RNA editing in treated BC CML mice; format: in vivo; settings: human cells from imetelstat treated LSC mouse models; p=0.037
Description: (§1) For gene expression and RNA editing analysis, RNA editing sites were identified in REDIportal^34 (see the Supplementary Appendix). […] Gene Set Enrichment Analysis was performed with the Bioconductor package GSVA (see the Supplementary Appendix)^36. For in vitro and in vivo experiments, the Student's t-test was utilized to evaluate statistical significance of normally distributed data and Wilcoxon tests were utilized for non-normally distributed data with a p value of <0.05.
To quantify adenosine-to-inosine (A-to-I) RNA editing events induced by ADAR1, RNA reads were aligned using 2-pass alignment with STAR 2.5.2b 2-pass alignment. […] All sites were kept if a minimum of three alternative allele carrying reads and ten total reads and a minimum allele frequency of 0.10 were present. […] We only predicted RNA editing sites with >10 reads/site to compare mismatches and excluded sites that were identified as DNA variants. […] To account for multiple testing, adjusted p-values were calculated using the Benjamini-Hochberg procedure and genes with events below an adjusted p-value of 0.05 were called significant and retained in the final lists.
FIG. 5H. A boxplot depicting detectable RNA edits per million aligned reads in human CD45^+ cells derived from vehicle (red), mismatch control (blue) and imetelstat (green) treated BC CML mouse models. […]

ABL1 = ABL1 expression in human CD45+ cells from treated BC CML mice; format: in vivo; settings: p=0.02
Text: FIG. 5F. Boxplot depicting Log 2 (cpm) expression of ABL1 by RNA-seq analysis of human CD45^+ cells isolated from vehicle (red), mismatch control (blue) and imetelstat (green) treated BC CML mouse cells (Student's t-test: vehicle: p=0.037, imetelstat: p=0.02).

TERT = assay: RNA-seq of human CD45+ cells from treated BC CML mice; format: in vivo; settings: surviving human CD45+ cells; imetelstat compared with vehicle; p<0.01
Description: as §1
FastQC (Andrews, S. & Others. FastQC: a quality control tool for high throughput sequence data. (2010) was used to perform quality control on raw fastq files. Sequencing reads were aligned to the human genome (hg19) using the STAR v2.5.1a aligner^19. RSEM^20 v1.3.0 and GENCODE annotation (genocode.v19.annotation.gtf) were used for read and transcript quantification, and R BioConductor packages edgeR^21 and Limma^22 were used to implement the limma-voom^23 method for differential expression analysis at both the gene and transcript levels. The experimental design was modeled upon disease and tissue type (˜0+disease; ˜0+tissue; ˜0+disease+tissue). Significance was defined by using an adjusted p-value cut-off of 0.05 after multiple testing correction using a moderated t-statistic in Limma. […] Gene Set Enrichment Analysis was performed with the Bioconductor package GSVA^25.
FIG. 5C. […]

BC CML CD34+ cells (LSC) = assay: SL/M2 stromal co-culture, clonogenic survival and self-renewal (replating) assays, BC CML; format: cell-based, human; settings: imetelstat monotherapy, 1 to 10 μM, vs mismatch control
Text: Lentiviral human wild-type and mutant ADAR1^E912A (pCDH-EF1-T2A-copGFP) and shRNA targeting ADAR1 were produced according to published protocols^27,37. In Vitro MPN-SPC and LSC Survival and Self-Renewal Assays with Imetelstat To assess MPN progenitor and LSC survival and self-renewal in vitro, human primary CD34^+ cells selected from BC CML (n=5), MF (n=9) or age matched normal bone marrow (a-NBM, n=4) were co-cultured with SL/M2 stromal cells for 7-14 days, and then treated with imetelstat alone or combined with dasatinib for BC CML or Pacritinib for MF. Colony forming and replating assays were performed as previously described^32.
To assess MPN progenitor and LSC survival and self-renewal in vitro, human primary CD34^+ cells selected from BC CML (n=5), MF (n=9) or age matched normal bone marrow (a-NBM, n=4) were co-cultured with SL/M2 stromal cells for 7-14 days, and then treated with Imetelstat alone or combined with dasatinib for BC CML or Pacritinib for MF. Colony forming and replating assays were performed as previously described^32,33.
FIG. 3A. A schematic illustration of SL/M2 stromal co-cultures established to quantify in vitro MPN-SPC and LSC survival and self-renewal. Human primary CD34^+ cells selected from BC CML (n=5), MF (n=9) or age matched normal bone marrow (a-NBM, n=4) were co-cultured with SL/M2 stromal cells for 7-14 days. […]

beta-catenin = assay: qRT-PCR gene expression in BC CML CD34+ cells in stromal co-culture; format: cell-based, human; settings: imetelstat monotherapy 5 μM for 14 days vs mismatch control
Description: (§2) FIG. 7 illustrates supplementary FIG. 2, where gene expression qRT-PCR analyses of human CD34^+ cells sorted from BC CML patient samples (n=3) and MF patient samples (n=5) that were co-cultured with SL/M2 stromal cells and treated with mismatch control or imetelstat at 5 μM for 14 days.

ADAR1 = assay: as above; format: cell-based, human; settings: imetelstat monotherapy 5 μM for 14 days vs mismatch control
Description: as §2

**Q.** For imetelstat, which “ADAR1-mediated adenosine to inosine RNA editing by RNA-seq” value [1] is on record?
**A.** significant reduction; also recorded: significantly reduced

**Q.** And the ABL1 expression (ABL1)?
**A.** significantly reduced

**Q.** What about the “TERT expression by RNA-seq” value (TERT) of the same substance?
**A.** reduction

**Q.** And the “BC CML LSC replating (self-renewal) capacity” value (BC CML CD34+ cells (LSC))?
**A.** ineffective

**Q.** What about the “beta-catenin self-renewal gene expression by qRT-PCR” value (beta-catenin) of the same substance?
**A.** ineffective

**Q.** And the “ADAR1 gene expression by qRT-PCR” value (ADAR1)?
**A.** ineffective
